Measured values: PubChem BioAssay (NCI)
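Interpolation was linear, between the two tested concentrations surrounding the appropriate level; five concentrations were tested over 48 hours in 96-well plates. GI50: concentration for 50% inhibition of growth. At the TGI there is no net growth.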

Experiments:
Assay in all cases: inhibition of tumour cell growth, NCI panel, 48 h
[1] = system: CCRF-CEM leukemia
[2] = system: A549 NSCLC
[3] = system: SK-MEL-28 melanoma
[4] = system: OVCAR-3 ovarian
[5] = system: HOP-62 NSCLC
[6] = system: SF-295 CNS
[7] = system: K-562 leukemia
[8] = system: SNB-19 CNS
[9] = system: OVCAR-4 ovarian
[10] = system: MDA-MB-435

Row | Compound | TGI [1] | TGI [2] | TGI [3] | TGI [4] | TGI [5] | TGI [6] | TGI [7] | TGI [8] | TGI [9] | TGI [10] | GI50 [1] | GI50 [2] | GI50 [8] | GI50 [3] | GI50 [4] | GI50 [5] | GI50 [6] | GI50 [10] | GI50 [7] | GI50 [9]
1 | Cc1cccc(C)c1NC(=O)C(=O)C(C(=O)c1ccccc1-c1ccccc1)C1OC(=O)c2ccccc21 (configuration not stated) | > 100 µM | 72.5 µM | 61.4 µM | 38 µM | 35.7 µM | > 100 µM | > 100 µM | – | – | – | – | – | – | – | – | – | – | – | – | –
2 | Cc1cc(C)nc(NS(=O)(=O)c2ccc(NC(=O)c3cccc4c(Nc5ccc(S(N)(=O)=O)cc5)c5ccccc5nc34)cc2)n1 | > 25.1 µM | > 100 µM | > 29.3 µM | 27.6 µM | 98.8 µM | > 100 µM | > 67.6 µM | > 100 µM | > 85.5 µM | – | – | – | – | – | – | – | – | – | – | –
3 | OCc1ccn2c1[C@@H](O)CC2 | > 100 µM | > 100 µM | > 100 µM | > 100 µM | > 100 µM | > 100 µM | > 100 µM | > 100 µM | > 100 µM | > 100 µM | – | – | – | – | – | – | – | – | – | –
4 | O=C(/C=C/c1ccccc1Cl)NC1C=Nc2ccc([N+](=O)[O-])cc2NC1 (configuration not stated) | 84.8 µM | > 100 µM | > 100 µM | > 100 µM | > 100 µM | > 100 µM | > 100 µM | > 100 µM | > 100 µM | – | – | – | – | – | – | – | – | – | – | –
5 | Cn1cc(C2=C(c3cccc(Br)c3)C(=O)NC2=O)c2ccccc21 | > 25 µM | > 25 µM | > 25 µM | > 25 µM | > 25 µM | > 25 µM | > 25 µM | > 25 µM | > 25 µM | > 25 µM | 12.3 µM | 11.1 µM | > 25 µM | > 22.9 µM | 9.51 µM | 18.3 µM | 12.9 µM | 5.82 µM | 8.65 µM | 12.6 µM
6 | COc1cc2c3c(n(CCCOC(=O)C(F)(F)F)c(=O)c2cc1OC)-c1cc2c(cc1C3=O)OCO2 | > 100 µM | – | > 100 µM | 0.306 µM | < 0.0329 µM | 0.721 µM | > 100 µM | > 100 µM | > 100 µM | 3.69 µM | < 0.01 µM | – | – | – | 0.0425 µM | < 0.01 µM | < 0.01 µM | 0.0232 µM | < 0.0289 µM | 0.208 µM
7 | Cc1nc([N+](=O)[O-])cn1CC(=N)N | > 100 µM | > 100 µM | > 100 µM | > 100 µM | > 100 µM | > 100 µM | > 100 µM | > 100 µM | > 100 µM | – | – | – | – | – | – | – | – | – | – | –
8 | CC(C)N(C(=O)C12C3C4C1(I)C1C2C3(I)C41C(=O)N(C(C)C)C(C)C)C(C)C (configuration not stated) | > 61.2 µM | > 100 µM | > 100 µM | > 100 µM | > 100 µM | > 100 µM | > 63.6 µM | > 100 µM | > 100 µM | – | – | – | – | – | – | – | – | – | – | –
9 | COC(=O)[C@H]1C=C[C@@H](C)n2c(=O)c3cc4ccccc4cc3c(=O)n21 | > 100 µM | > 100 µM | > 100 µM | > 100 µM | > 100 µM | > 100 µM | > 100 µM | > 100 µM | – | – | – | – | – | – | – | – | – | – | – | –
10 | Cc1nc2sc3c(c2c(=O)[nH]1)CCCC3 | – | > 100 µM | > 100 µM | > 100 µM | > 100 µM | > 100 µM | > 100 µM | > 100 µM | > 100 µM | > 100 µM | – | – | – | – | – | – | – | – | – | –
11 | O=P1(c2ccccc2)CCCCC1 | > 100 µM | > 100 µM | > 100 µM | > 100 µM | > 100 µM | > 100 µM | > 100 µM | > 100 µM | > 100 µM | – | – | – | – | – | – | – | – | – | – | –
12 | NC(=O)OCCn1cc(-c2nc(-c3c[nH]c4ncccc34)cs2)c2ccccc21 | 16.9 µM | 23 µM | 14.8 µM | 3.83 µM | 7.87 µM | 7.7 µM | 14 µM | 43.8 µM | 11.9 µM | – | 2.65 µM | 2.34 µM | 2.57 µM | 2.05 µM | 1.27 µM | 1.07 µM | 2.29 µM | – | 1.55 µM | 1.78 µM
13 | COc1cc(C=O)c(-c2cc(OC)c(OC)cc2C=O)cc1OC | > 100 µM | > 100 µM | > 100 µM | > 100 µM | > 100 µM | > 100 µM | > 100 µM | > 100 µM | > 100 µM | – | – | – | – | – | – | – | – | – | – | –
14 | CCCN1CN(C(C(=O)N[C@@H]2C(=O)N3C2SC(C)(C)C3C(=O)O)c2ccc(O)cc2)CSC1=S (some centres not stated) | > 100 µM | – | > 100 µM | 72.6 µM | > 100 µM | > 100 µM | > 100 µM | > 100 µM | > 100 µM | – | – | – | – | – | – | – | – | – | – | –
15 | CC1COC(C)(C)P(=O)(c2ccccc2)C1 (configuration not stated) | > 100 µM | > 100 µM | > 100 µM | > 100 µM | > 100 µM | > 100 µM | > 100 µM | > 100 µM | – | – | – | – | – | – | – | – | – | – | – | –
16 | O=C1NC(=O)C(c2cccc([N+](=O)[O-])c2)=C1Nc1cc(Cl)c(O)c(Cl)c1 | – | > 25 µM | > 25 µM | > 25 µM | > 25 µM | > 25 µM | > 25 µM | > 25 µM | > 25 µM | > 25 µM | – | > 25 µM | > 25 µM | > 25 µM | > 17.9 µM | > 25 µM | > 16.3 µM | > 25 µM | > 25 µM | > 25 µM
17 | CCCO/S(=N\S(=O)(=O)c1ccccc1)c1ccccc1[N+](=O)[O-] (configuration not stated) | > 100 µM | > 100 µM | > 100 µM | > 100 µM | > 100 µM | > 100 µM | > 100 µM | > 100 µM | > 100 µM | – | – | – | – | – | – | – | – | – | – | –
18 | Cc1ccc(S(=O)(=O)c2ccc(N)cc2)cc1 | > 100 µM | > 100 µM | > 100 µM | > 100 µM | > 100 µM | > 100 µM | > 100 µM | – | > 100 µM | – | – | – | – | – | – | – | – | – | – | –
19 | COc1cc2c(OC)cc1CSCc1sc(C)c(c1Br)CSC2 | > 100 µM | > 100 µM | > 100 µM | > 100 µM | > 100 µM | > 100 µM | > 100 µM | > 100 µM | > 100 µM | – | – | – | – | – | – | – | – | – | – | –
